Test in all cases: biochemical
Holding throughout (parameters): KINOMEscan competition binding panel (Eurofins DiscoverX), single concentration, % inhibition

For one experiment, the target named is FLT3(N841I) (Homo sapiens, UniProt P36888, N841I). The following applies: read-out: 7 at 1 µM % inhibition. The method, boiled down: (§1)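 Values come from single-concentration (1 µM) profiling in the Eurofins DiscoverX KINOMEscan competition-binding platform, which covers over 400 kinases.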
In a further experiment the target is GRK2 (Homo sapiens, UniProt P25098). The following applies: read-out: 7 at 1 µM % inhibition. The method, boiled down: as §1
The next experiment deals with NEK4 (Homo sapiens, UniProt P51957). The following applies: read-out: 7 at 1 µM % inhibition. A digest of the protocol: as §1
Another experiment addresses T1, ASK2 (Homo sapiens, UniProt O95382).
T1 construct: gene MAP3K6
The settings on record: read-out: 7 at 1 µM % inhibition. A digest of the protocol:
as §1

Another experiment addresses T2, PFPK5(P.falciparum) (Plasmodium falciparum, UniProt P61075).
T2 construct: gene CRK2
The settings on record: read-out: 7 at 1 µM % inhibition (pathogen kinases). A digest of the protocol:
as §1

The target in a further experiment is BMX (Homo sapiens, UniProt P51813). The settings on record: read-out: 7 at 1 µM % inhibition. The method, boiled down:
as §1

Another experiment deals with EPHA4 (Homo sapiens, UniProt P54764). The following applies: read-out: 7 at 1 µM % inhibition. The method, boiled down:
as §1

A further experiment addresses WNK2 (Homo sapiens, UniProt Q9Y3S1). The following applies: read-out: 7 at 1 µM % inhibition. The method, boiled down:
as §1

The next experiment addresses SRC (Homo sapiens, UniProt P12931). The settings on record: read-out: 7 at 1 µM % inhibition. The method, boiled down:
as §1

The target of a further experiment is MAP3K1 (Homo sapiens, UniProt Q13233). The following applies: read-out: 7 at 1 µM % inhibition. A digest of the protocol: as §1
In another experiment the target is CAMK2G (Homo sapiens, UniProt Q13555). The settings on record: read-out: 7 at 1 µM % inhibition. The method, boiled down:
as §1

A further experiment concerns the target PIM1 (Homo sapiens, UniProt P11309). The settings on record: read-out: 7 at 1 µM % inhibition. The method, boiled down:
as §1

For the next experiment, the target named is T3, PFTAIRE2 (Homo sapiens, UniProt Q96Q40).
T3 construct: gene CDK15
The settings on record: read-out: 7 at 1 µM % inhibition. A digest of the protocol:
as §1

In a further experiment the target is LRRK2(G2019S) (Homo sapiens, UniProt Q5S007, G2019S). The settings on record: read-out: 7 at 1 µM % inhibition. The method, boiled down:
as §1

A further experiment concerns the target T4, CAMK1B (Homo sapiens, UniProt Q6P2M8).
T4 construct: gene PNCK
The settings on record: read-out: 7 at 1 µM % inhibition. A digest of the protocol:
as §1

For the next experiment, the target named is DDR1 (Homo sapiens, UniProt Q08345). The settings on record: read-out: 7 at 1 µM % inhibition. A digest of the protocol: as §1
Another experiment addresses T5, MST2 (Homo sapiens, UniProt Q13188).
T5 construct: gene STK3
The settings on record: read-out: 7 at 1 µM % inhibition. The method, boiled down: as §1

For another experiment, the target named is NEK6 (Homo sapiens, UniProt Q9HC98). The settings on record: read-out: 7 at 1 µM % inhibition. A digest of the protocol:
as §1

Another experiment has as its target ROCK2 (Homo sapiens, UniProt O75116). The following applies: read-out: 7 at 1 µM % inhibition. The method, boiled down: as §1
For a further experiment, the target named is KIT(D816H) (Homo sapiens, UniProt P10721, D816H). The following applies: read-out: 7 at 1 µM % inhibition. A digest of the protocol: as §1
A further experiment addresses MARK3 (Homo sapiens, UniProt P27448). The settings on record: read-out: 7 at 1 µM % inhibition. The method, boiled down:
as §1

Another experiment has as its target SGK2 (Homo sapiens, UniProt Q9HBY8). The following applies: read-out: 7 at 1 µM % inhibition. The method, boiled down:
as §1

The target of another experiment is CLK4 (Homo sapiens, UniProt Q9HAZ1). The settings on record: read-out: 7 at 1 µM % inhibition. A digest of the protocol: as §1
The next experiment has as its target T6, ICK (Homo sapiens, UniProt Q9UPZ9).
T6 construct: gene CILK1
The following applies: read-out: 7 at 1 µM % inhibition. The method, boiled down: as §1

The results in this text go back to publication PMC7180948, “New Insights into 4-Anilinoquinazolines as Inhibitors of Cardiac Troponin I–Interacting Kinase (TNNi3K)” (Molecules, 2020).

T6 sequence (Q9UPZ9 whole entry): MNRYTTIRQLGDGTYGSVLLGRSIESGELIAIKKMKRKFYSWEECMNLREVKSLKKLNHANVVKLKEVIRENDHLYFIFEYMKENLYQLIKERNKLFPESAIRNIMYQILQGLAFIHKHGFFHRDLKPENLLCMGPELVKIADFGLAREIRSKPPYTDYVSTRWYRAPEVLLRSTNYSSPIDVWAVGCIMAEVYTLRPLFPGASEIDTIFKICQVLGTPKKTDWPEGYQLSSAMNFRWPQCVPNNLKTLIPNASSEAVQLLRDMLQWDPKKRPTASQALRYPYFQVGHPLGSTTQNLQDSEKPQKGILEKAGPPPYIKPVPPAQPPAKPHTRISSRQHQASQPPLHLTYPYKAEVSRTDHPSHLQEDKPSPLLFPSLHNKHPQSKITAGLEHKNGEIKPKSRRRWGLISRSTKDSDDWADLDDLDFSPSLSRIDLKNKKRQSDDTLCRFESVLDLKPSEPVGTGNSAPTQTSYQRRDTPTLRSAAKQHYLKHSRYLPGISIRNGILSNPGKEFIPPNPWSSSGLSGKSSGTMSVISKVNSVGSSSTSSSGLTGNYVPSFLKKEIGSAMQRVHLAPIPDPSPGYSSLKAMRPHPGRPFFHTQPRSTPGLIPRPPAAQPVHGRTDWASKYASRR
T5 sequence (Q13188 whole entry): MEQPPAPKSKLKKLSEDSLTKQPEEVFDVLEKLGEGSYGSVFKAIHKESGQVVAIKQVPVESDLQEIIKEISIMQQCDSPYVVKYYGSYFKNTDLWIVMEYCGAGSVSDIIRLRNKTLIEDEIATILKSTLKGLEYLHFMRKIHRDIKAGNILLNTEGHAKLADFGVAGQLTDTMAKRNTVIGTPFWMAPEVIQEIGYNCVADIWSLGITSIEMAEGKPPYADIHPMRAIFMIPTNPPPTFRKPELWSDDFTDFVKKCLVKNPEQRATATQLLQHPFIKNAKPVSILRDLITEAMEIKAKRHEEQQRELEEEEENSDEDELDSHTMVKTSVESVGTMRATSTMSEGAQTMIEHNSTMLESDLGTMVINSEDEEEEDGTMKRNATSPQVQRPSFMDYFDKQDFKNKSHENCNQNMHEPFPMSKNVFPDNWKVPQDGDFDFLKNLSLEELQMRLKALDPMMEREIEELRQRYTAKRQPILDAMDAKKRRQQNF
EPHA4, sequence (P54764 whole entry): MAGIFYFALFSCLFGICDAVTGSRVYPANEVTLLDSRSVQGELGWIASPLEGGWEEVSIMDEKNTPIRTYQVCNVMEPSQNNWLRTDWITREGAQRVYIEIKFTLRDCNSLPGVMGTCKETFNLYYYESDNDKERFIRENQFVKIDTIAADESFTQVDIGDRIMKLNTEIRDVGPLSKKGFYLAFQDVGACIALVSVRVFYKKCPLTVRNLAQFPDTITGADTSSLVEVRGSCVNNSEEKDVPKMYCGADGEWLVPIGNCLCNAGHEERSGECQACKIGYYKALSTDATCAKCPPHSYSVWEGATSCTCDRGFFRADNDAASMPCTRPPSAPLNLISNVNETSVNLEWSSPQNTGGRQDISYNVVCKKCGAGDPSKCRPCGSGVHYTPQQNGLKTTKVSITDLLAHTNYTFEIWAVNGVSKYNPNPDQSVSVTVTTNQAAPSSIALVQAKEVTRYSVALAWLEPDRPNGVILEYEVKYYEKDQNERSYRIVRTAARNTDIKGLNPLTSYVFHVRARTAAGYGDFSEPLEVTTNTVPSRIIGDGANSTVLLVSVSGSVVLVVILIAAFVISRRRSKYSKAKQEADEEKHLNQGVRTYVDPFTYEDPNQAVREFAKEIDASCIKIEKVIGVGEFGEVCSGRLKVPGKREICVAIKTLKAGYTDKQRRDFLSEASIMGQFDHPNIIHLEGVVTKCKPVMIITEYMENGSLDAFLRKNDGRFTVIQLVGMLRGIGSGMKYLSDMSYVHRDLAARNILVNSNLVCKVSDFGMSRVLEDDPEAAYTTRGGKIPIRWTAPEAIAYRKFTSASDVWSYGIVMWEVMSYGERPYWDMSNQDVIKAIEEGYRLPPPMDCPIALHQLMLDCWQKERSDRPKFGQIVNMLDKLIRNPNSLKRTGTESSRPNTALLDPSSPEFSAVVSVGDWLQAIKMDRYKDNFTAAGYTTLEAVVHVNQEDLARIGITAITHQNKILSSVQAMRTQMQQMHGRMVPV
SGK2, sequence (Q9HBY8 whole entry): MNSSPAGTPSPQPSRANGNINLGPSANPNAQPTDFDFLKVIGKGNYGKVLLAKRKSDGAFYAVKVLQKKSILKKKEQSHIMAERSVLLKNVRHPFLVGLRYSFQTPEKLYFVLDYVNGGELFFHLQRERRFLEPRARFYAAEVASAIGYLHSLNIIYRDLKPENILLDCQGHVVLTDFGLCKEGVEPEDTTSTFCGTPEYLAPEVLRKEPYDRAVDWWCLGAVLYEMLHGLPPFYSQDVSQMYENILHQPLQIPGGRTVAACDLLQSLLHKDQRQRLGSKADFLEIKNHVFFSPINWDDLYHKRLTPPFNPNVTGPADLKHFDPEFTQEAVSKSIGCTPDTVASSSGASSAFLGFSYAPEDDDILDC
CAMK2G, sequence (Q13555 whole entry): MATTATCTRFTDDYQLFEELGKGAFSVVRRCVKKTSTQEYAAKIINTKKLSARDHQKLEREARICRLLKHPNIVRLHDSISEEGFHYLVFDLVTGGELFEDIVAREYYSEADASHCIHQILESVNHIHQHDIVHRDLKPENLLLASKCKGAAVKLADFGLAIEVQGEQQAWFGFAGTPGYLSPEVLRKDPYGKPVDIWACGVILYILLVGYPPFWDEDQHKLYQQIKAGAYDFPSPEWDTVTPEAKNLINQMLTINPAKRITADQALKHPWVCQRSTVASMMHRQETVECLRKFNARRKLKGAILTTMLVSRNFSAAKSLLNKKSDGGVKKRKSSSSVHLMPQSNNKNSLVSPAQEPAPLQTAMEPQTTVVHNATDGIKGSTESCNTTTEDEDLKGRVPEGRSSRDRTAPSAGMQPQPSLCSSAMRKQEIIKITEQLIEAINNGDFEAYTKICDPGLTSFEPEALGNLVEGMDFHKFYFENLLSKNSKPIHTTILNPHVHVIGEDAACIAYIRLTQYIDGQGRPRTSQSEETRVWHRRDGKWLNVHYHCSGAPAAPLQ
BMX, sequence (P51813 whole entry): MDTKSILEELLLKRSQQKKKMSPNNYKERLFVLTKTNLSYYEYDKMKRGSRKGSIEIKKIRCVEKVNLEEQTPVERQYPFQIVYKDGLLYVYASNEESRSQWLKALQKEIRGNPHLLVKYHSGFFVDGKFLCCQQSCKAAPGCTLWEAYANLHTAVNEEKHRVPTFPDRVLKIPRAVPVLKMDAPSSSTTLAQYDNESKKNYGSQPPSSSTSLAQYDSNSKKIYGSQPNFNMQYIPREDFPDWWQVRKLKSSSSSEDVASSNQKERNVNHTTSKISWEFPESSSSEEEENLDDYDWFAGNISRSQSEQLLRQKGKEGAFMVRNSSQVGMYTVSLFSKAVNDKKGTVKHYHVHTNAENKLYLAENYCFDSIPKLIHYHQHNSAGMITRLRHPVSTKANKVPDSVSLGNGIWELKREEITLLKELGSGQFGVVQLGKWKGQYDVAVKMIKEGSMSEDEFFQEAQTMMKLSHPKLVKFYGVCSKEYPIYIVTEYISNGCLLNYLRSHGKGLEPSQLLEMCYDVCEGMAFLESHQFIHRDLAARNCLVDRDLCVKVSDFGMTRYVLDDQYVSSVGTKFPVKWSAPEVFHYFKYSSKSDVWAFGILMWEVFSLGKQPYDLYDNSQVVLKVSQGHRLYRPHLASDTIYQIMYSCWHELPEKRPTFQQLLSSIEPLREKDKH
T3 sequence (Q96Q40 whole entry): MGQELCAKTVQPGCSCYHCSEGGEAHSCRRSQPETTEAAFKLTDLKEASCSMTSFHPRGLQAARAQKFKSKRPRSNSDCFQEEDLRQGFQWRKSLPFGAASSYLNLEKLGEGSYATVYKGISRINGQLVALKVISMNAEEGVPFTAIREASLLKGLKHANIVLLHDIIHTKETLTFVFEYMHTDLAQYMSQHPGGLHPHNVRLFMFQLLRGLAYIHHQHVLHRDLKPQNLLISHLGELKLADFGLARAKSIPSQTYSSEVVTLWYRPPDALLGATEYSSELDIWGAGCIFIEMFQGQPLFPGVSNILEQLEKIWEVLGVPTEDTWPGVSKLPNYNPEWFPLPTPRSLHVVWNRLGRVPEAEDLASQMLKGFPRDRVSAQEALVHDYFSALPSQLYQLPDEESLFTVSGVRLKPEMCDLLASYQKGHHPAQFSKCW
T2 sequence (P61075 whole entry): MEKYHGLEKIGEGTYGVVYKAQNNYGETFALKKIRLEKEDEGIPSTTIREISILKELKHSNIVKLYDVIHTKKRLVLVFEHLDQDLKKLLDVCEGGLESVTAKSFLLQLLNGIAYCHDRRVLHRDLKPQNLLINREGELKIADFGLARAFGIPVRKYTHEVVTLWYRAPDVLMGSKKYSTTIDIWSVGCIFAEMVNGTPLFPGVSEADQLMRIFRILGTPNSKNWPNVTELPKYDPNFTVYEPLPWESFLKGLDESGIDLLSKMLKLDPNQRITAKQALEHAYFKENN
CLK4, sequence (Q9HAZ1 whole entry): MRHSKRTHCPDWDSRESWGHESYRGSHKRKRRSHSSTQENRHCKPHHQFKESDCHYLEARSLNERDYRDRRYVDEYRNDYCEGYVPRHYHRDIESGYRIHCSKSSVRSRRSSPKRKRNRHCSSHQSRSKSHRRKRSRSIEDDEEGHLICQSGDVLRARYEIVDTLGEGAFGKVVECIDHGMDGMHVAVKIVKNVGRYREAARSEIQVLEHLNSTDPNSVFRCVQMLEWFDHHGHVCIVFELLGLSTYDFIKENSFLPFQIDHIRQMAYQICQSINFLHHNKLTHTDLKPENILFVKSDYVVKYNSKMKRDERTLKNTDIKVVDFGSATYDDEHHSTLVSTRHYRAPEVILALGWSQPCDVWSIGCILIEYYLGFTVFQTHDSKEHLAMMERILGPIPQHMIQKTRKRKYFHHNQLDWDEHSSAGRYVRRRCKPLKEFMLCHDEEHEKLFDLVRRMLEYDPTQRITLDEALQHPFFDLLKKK

With `CNS(=O)(=O)c1ccc(N(C)C)c(Nc2ncnc3cc(OC)c(OC)cc23)c1` [compound 7, 3-((6,7-dimethoxyquinazolin-4-yl)amino)-4-(dimethylamino)-N-methylbenzenesulfonamide], the inhibition at 1 µM on FLT3(N841I) amounted to 0%; on GRK2 it was 65%; at NEK4 it was 12%; at ASK2 it was 30%; on PFPK5(P.falciparum) it was 6%; at BMX, 0%. Moreover, the inhibition at 1 µM at EPHA4, at WNK2, at SRC, at MAP3K1, on CAMK2G and on PIM1 was 0% in each case. The inhibition at 1 µM on PFTAIRE2 was 0%; at LRRK2(G2019S), 23%; on CAMK1B it was 46%; on DDR1, 0%; at MST2, 0%; on NEK6 it was 0%. The inhibition at 1 µM was 0% on ROCK2; 100% at KIT(D816H); 0% on MARK3; 0% on SGK2; 13% at CLK4; 7% at ICK.

In general, inhibition refers to the percentage by which the read-out fell short of the control.
